Laboratory results reported in ChEMBL document CHEMBL1201862, “PubChem BioAssay data set” (2004).
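Protocol summary: plate cells (96-well), add compound at 5 concentrations, incubate 48 h, interpolate endpoints linearly. GI50 = concentration required for 50% inhibition of growth.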 Calls of active or inactive are those of the source. Cut-off read from the data, not from the text of the source: active = GI50 up to about 1.1 µM and inactive = higher.

Tests used:
Assay in all cases: growth of human tumour cells (NCI), 48 h
A498 = tested on: A498
BT-549 = tested on: BT-549
HCC 2998 = tested on: HCC 2998
HCT-116 = tested on: HCT-116
HCT-15 = tested on: HCT-15
LOX IMVI = tested on: LOX IMVI
M14 = tested on: M14
MDA-MB-231 = tested on: MDA-MB-231
MOLT-4 = tested on: MOLT-4
NCI-H23 = tested on: NCI-H23
OVCAR-5 = tested on: OVCAR-5
PC-3 = tested on: PC-3
SF-268 = tested on: SF-268
SF-295 = tested on: SF-295
SK-MEL-2 = tested on: SK-MEL-2
SR = tested on: SR
SW-620 = tested on: SW-620
TK-10 = tested on: TK-10
UACC-257 = tested on: UACC-257
RPMI-8226 = tested on: RPMI-8226

| Compound | GI50 (A498) | GI50 (BT-549) | GI50 (HCC 2998) | GI50 (HCT-116) | GI50 (HCT-15) | GI50 (LOX IMVI) | GI50 (M14) | GI50 (MDA-MB-231) | GI50 (MOLT-4) | GI50 (NCI-H23) | GI50 (OVCAR-5) | GI50 (PC-3) | GI50 (SF-268) | GI50 (SF-295) | GI50 (SK-MEL-2) | GI50 (SR) | GI50 (SW-620) | GI50 (TK-10) | GI50 (UACC-257) | GI50 (RPMI-8226) |
| --- | --- | --- | --- | --- | --- | --- | --- | --- | --- | --- | --- | --- | --- | --- | --- | --- | --- | --- | --- | --- |
| Cn1c2ccccc2n2c(=O)c(-c3ccc(O)cc3)nnc12 | > 100 µM (inactive) | 56 µM (inactive) | > 100 µM (inactive) | > 100 µM (inactive) | > 100 µM | 69.8 µM (inactive) | > 100 µM (inactive) | 31.2 µM (inactive) | > 100 µM (inactive) | > 100 µM (inactive) | > 100 µM (inactive) | > 100 µM (inactive) | 64.7 µM (inactive) | 18.3 µM (inactive) | > 100 µM (inactive) | > 100 µM (inactive) | > 100 µM (inactive) | > 100 µM (inactive) | > 100 µM (inactive) | – |
| O=C1c2ccccc2-c2nnc(-c3ccc(Cl)cc3)cc21 | > 10 µM (inactive) | > 10 µM (inactive) | > 10 µM (inactive) | > 10 µM (inactive) | > 10 µM | > 10 µM (inactive) | > 10 µM (inactive) | > 10 µM (inactive) | > 10 µM (inactive) | > 10 µM (inactive) | > 10 µM (inactive) | > 10 µM (inactive) | > 10 µM (inactive) | > 10 µM (inactive) | > 10 µM (inactive) | > 10 µM (inactive) | > 10 µM (inactive) | – | > 10 µM (inactive) | > 10 µM (inactive) |
| O=C1c2ccccc2C(=O)c2c(Nc3cc4c5c(ccc6c7ccc8c9c(cc(Nc%10cccc%11c%10C(=O)c%10ccccc%10C%11=O)c(c3c56)c97)-c3ccccc3C8=O)C(=O)c3ccccc3-4)cccc21 | 26.1 µM (inactive) | 46.3 µM (inactive) | – | 88.9 µM (inactive) | > 100 µM | 72.1 µM (inactive) | > 100 µM (inactive) | 31.6 µM (inactive) | 37.8 µM (inactive) | > 100 µM (inactive) | > 100 µM (inactive) | 70.6 µM (inactive) | 18.8 µM (inactive) | 44 µM (inactive) | 53.6 µM (inactive) | 43.7 µM (inactive) | > 100 µM (inactive) | 29.9 µM (inactive) | > 100 µM (inactive) | > 100 µM (inactive) |
| CCOC(=O)O/C(=C\c1ccc(OC)cc1)c1c(OC(=O)OCC)n(C(=O)OCC)c2ccccc12 | 14.2 µM (inactive) | 39.5 µM (inactive) | – | 33.9 µM (inactive) | 7.05 µM | 42.3 µM (inactive) | 23.6 µM (inactive) | 18.5 µM (inactive) | – | 27.9 µM (inactive) | 76.9 µM (inactive) | 29.2 µM (inactive) | 47.1 µM (inactive) | 28.4 µM (inactive) | 35 µM (inactive) | 15.3 µM (inactive) | 24.3 µM (inactive) | 31.3 µM (inactive) | 34.5 µM (inactive) | 1.83 µM (inactive) |
| COC(OC)(c1ccccc1)C(Br)Br | > 100 µM (inactive) | > 100 µM (inactive) | > 100 µM (inactive) | 17.9 µM (inactive) | 17.1 µM | 28.2 µM (inactive) | 18.6 µM (inactive) | 74.5 µM (inactive) | 16.1 µM (inactive) | > 100 µM (inactive) | > 100 µM (inactive) | > 100 µM (inactive) | 42.6 µM (inactive) | > 100 µM (inactive) | > 100 µM (inactive) | 21 µM (inactive) | 15.8 µM (inactive) | – | > 100 µM (inactive) | 36.5 µM (inactive) |
| O=C1CS(=O)(=O)C(c2cccc(Oc3ccccc3)c2)N1c1ccccc1 (stereo not given) | 17.9 µM (inactive) | 20.1 µM (inactive) | 16.9 µM (inactive) | 16.3 µM (inactive) | 22 µM | 16.5 µM (inactive) | 18.7 µM (inactive) | 19.9 µM (inactive) | 20.4 µM (inactive) | 25.1 µM (inactive) | 31.6 µM (inactive) | 19.1 µM (inactive) | 23.7 µM (inactive) | 30.5 µM (inactive) | 16.1 µM (inactive) | 19.9 µM (inactive) | 31.5 µM (inactive) | 26.6 µM (inactive) | 18.6 µM (inactive) | – |
| O=C1CC(CC(O)[C@@H]2CCCC[C@@H]2O)CC(=O)N1c1ccccc1 (stereo not given in full) | > 100 µM (inactive) | > 100 µM (inactive) | > 100 µM (inactive) | > 100 µM (inactive) | > 100 µM | > 100 µM (inactive) | > 100 µM (inactive) | > 100 µM (inactive) | > 100 µM (inactive) | > 100 µM (inactive) | > 100 µM (inactive) | > 100 µM (inactive) | > 100 µM (inactive) | > 100 µM (inactive) | – | > 100 µM (inactive) | > 100 µM (inactive) | > 100 µM (inactive) | > 100 µM (inactive) | > 100 µM (inactive) |
| NCCC1([N+](=O)[O-])C=CN=CC1 (stereo not given) | > 100 µM (inactive) | > 100 µM (inactive) | – | > 100 µM (inactive) | > 100 µM | – | > 100 µM (inactive) | > 100 µM (inactive) | > 100 µM (inactive) | > 100 µM (inactive) | > 100 µM (inactive) | > 100 µM (inactive) | > 100 µM (inactive) | > 100 µM (inactive) | > 100 µM (inactive) | > 100 µM (inactive) | > 100 µM (inactive) | > 100 µM (inactive) | > 100 µM (inactive) | > 100 µM (inactive) |
| O=C(OCc1ccccc1)C(Cc1ccc(OCc2ccccc2)cn1)NC(=O)C(F)(F)F (stereo not given) | > 100 µM (inactive) | > 100 µM (inactive) | > 100 µM (inactive) | > 100 µM (inactive) | 46.3 µM | 92.3 µM (inactive) | – | > 100 µM (inactive) | 33.7 µM (inactive) | 86.9 µM (inactive) | > 100 µM (inactive) | > 100 µM (inactive) | 98.2 µM (inactive) | > 100 µM (inactive) | – | 86.9 µM (inactive) | > 100 µM (inactive) | > 100 µM (inactive) | > 100 µM (inactive) | 92.5 µM (inactive) |
| COc1ccccc1CNCc1nc2ccccc2[nH]1 | > 100 µM (inactive) | > 100 µM (inactive) | > 100 µM (inactive) | > 100 µM (inactive) | > 100 µM | > 100 µM (inactive) | > 100 µM (inactive) | > 100 µM (inactive) | > 100 µM (inactive) | > 100 µM (inactive) | > 100 µM (inactive) | > 100 µM (inactive) | > 100 µM (inactive) | > 100 µM (inactive) | > 100 µM (inactive) | > 100 µM (inactive) | > 100 µM (inactive) | > 100 µM (inactive) | > 100 µM (inactive) | > 100 µM (inactive) |
| Cc1ccc(S(=O)(=O)NC(C(=O)O)C(C)C)cc1 (stereo not given) | > 100 µM (inactive) | > 100 µM (inactive) | > 100 µM (inactive) | > 100 µM (inactive) | > 100 µM | > 100 µM (inactive) | > 100 µM (inactive) | > 100 µM (inactive) | > 100 µM (inactive) | > 100 µM (inactive) | > 100 µM (inactive) | > 100 µM (inactive) | > 100 µM (inactive) | > 100 µM (inactive) | > 100 µM (inactive) | > 100 µM (inactive) | > 100 µM (inactive) | > 100 µM (inactive) | > 100 µM (inactive) | – |
| CCOC(=O)C1=C(O)C2C3CC4C2C(O)=C(C(=O)OCC)C2C1C3C42 (stereo not given) | > 100 µM (inactive) | > 100 µM (inactive) | – | > 100 µM (inactive) | > 100 µM | 98.6 µM (inactive) | > 100 µM (inactive) | > 100 µM (inactive) | > 100 µM (inactive) | > 100 µM (inactive) | > 100 µM (inactive) | > 100 µM (inactive) | > 100 µM (inactive) | > 100 µM (inactive) | > 100 µM (inactive) | 45.3 µM (inactive) | > 100 µM (inactive) | > 100 µM (inactive) | > 100 µM (inactive) | 84.5 µM (inactive) |
| C#CCNC(CS)C(=O)O (stereo not given) | > 100 µM (inactive) | > 100 µM (inactive) | > 100 µM (inactive) | > 100 µM (inactive) | > 100 µM | > 100 µM (inactive) | > 100 µM (inactive) | > 100 µM (inactive) | > 100 µM (inactive) | > 100 µM (inactive) | > 100 µM (inactive) | > 100 µM (inactive) | > 100 µM (inactive) | > 100 µM (inactive) | > 100 µM (inactive) | > 100 µM (inactive) | > 100 µM (inactive) | > 100 µM (inactive) | > 100 µM (inactive) | > 100 µM (inactive) |
| CN1CCOC1(C)CO (stereo not given) | > 100 µM (inactive) | > 100 µM (inactive) | – | > 100 µM (inactive) | > 100 µM | > 100 µM (inactive) | > 100 µM (inactive) | > 100 µM (inactive) | > 100 µM (inactive) | > 100 µM (inactive) | > 100 µM (inactive) | > 100 µM (inactive) | > 100 µM (inactive) | > 100 µM (inactive) | > 100 µM (inactive) | > 100 µM (inactive) | > 100 µM (inactive) | > 100 µM (inactive) | > 100 µM (inactive) | > 100 µM (inactive) |
| C=C1CC(Cn2cc(C)c(=O)[nH]c2=O)(c2ccc(-c3ccccc3)cc2)OC1=O (stereo not given) | 3.34 µM (inactive) | 1.46 µM (inactive) | 1.86 µM (inactive) | 0.596 µM (active) | 1.69 µM | 0.889 µM (active) | 1.1 µM (active) | 2.22 µM (inactive) | 0.964 µM (active) | 1.74 µM (inactive) | 9.46 µM (inactive) | 2.01 µM (inactive) | 2.26 µM (inactive) | 8.85 µM (inactive) | 1.94 µM (inactive) | 0.82 µM (active) | 0.546 µM (active) | 1.4 µM (inactive) | 1.44 µM (inactive) | 0.385 µM (active) |
